Results taken from ChEMBL document CHEMBL1132682, “High affinity retinoic acid receptor antagonists: analogs of AGN 193109” (Bioorg Med Chem Lett, 1999).

Experiments:
[1] = target: T1, Retinoic acid receptor alpha (Homo sapiens, UniProt P10276); assay: Ability to displace 3[H](all-E)-retinoic acid (5 nM) from alpha retinoic acid receptor (alpha RAR) using transactivation assay
T1 sequence (P10276 whole entry): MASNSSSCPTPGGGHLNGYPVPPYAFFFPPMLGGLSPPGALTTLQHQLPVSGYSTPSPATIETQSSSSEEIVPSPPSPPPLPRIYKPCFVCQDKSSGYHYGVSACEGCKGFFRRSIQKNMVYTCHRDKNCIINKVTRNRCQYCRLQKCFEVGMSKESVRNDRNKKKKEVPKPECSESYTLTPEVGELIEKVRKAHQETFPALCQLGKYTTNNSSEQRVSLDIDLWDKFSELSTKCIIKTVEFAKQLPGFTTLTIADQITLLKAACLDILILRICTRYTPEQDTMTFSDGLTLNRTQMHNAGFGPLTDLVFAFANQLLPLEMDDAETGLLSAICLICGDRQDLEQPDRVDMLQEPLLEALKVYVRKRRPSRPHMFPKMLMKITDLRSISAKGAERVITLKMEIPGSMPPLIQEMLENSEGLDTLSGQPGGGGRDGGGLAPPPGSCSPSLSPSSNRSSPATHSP

[2] = target: T2, Retinoic acid receptor gamma (Homo sapiens, UniProt P13631); assay: Ability to displace 3[H](all-E)-retinoic acid (5 nM) from Retinoic acid receptor gamma using transactivation assay
T2 sequence (P13631 whole entry): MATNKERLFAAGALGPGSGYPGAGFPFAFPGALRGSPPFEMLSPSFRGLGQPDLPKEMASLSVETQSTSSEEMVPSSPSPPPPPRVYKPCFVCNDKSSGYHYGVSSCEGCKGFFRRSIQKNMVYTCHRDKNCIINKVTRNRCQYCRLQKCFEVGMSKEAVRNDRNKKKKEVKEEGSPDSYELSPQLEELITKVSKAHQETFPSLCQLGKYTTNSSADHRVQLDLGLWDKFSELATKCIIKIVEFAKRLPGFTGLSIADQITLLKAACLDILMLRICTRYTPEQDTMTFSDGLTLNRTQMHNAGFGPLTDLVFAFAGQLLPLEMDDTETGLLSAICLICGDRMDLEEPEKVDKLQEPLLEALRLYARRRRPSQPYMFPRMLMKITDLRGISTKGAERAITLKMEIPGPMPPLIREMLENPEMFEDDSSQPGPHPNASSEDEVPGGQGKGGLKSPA

[3] = target: T3, Retinoic acid receptor beta (Homo sapiens, UniProt P10826); assay: Ability to displace 3[H](all-E)-retinoic acid (5 nM) from beta retinoic acid receptor (beta RAR) using transactivation assay
T3 sequence (P10826 whole entry): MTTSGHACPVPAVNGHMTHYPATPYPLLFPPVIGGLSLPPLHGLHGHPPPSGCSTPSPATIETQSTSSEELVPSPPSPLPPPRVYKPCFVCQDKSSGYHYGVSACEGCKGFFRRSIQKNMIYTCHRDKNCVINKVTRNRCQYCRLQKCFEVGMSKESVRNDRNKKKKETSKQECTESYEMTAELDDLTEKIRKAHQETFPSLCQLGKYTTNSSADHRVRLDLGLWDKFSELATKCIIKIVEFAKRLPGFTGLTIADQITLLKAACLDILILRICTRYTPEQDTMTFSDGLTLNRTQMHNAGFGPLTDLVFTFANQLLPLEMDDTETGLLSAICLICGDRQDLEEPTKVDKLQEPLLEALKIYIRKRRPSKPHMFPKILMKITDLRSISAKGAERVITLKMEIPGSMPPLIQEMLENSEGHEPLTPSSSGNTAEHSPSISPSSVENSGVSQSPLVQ

| Compound | Kd [1] | Kd [2] | Kd [3] |
| --- | --- | --- | --- |
| CC(C)(C)c1ccc(C2=CCC(C)(C)c3ccc(C#Cc4ccc(C(=O)O)cc4)cc32)cc1 | 178 nM | 94 nM | 21 nM |
| Cc1ccccc1C1=CCC(C)(C)c2ccc(C#Cc3ccc(C(=O)O)cc3)cc21 | 103 nM | 35 nM | 29 nM |
| CC1(C)CC=C(c2ccccc2)c2cc(C#Cc3ccc(C(=O)O)cc3)ccc21 | 147 nM | 42 nM | 33 nM |
| Cc1cc(C)cc(C2=CCC(C)(C)c3ccc(C#Cc4ccc(C(=O)O)cc4)cc32)c1 | 1050 nM | 408 nM | 274 nM |
| Cc1cccc(C2=CCC(C)(C)c3ccc(C#Cc4ccc(C(=O)O)cc4)cc32)c1 | 276 nM | 67 nM | 51 nM |
| CC1(C)CC=C(c2cccc(O)c2)c2cc(C#Cc3ccc(C(=O)O)cc3)ccc21 | 919 nM | 254 nM | 162 nM |
| CC1(C)CC=C(c2ccc(O)cc2)c2cc(C#Cc3ccc(C(=O)O)cc3)ccc21 | 229 nM | 98 nM | 72 nM |

Stronger by Kd [1], values ahead:

| Kd [1] | Kd [2] | Kd [3] | Compound |
| --- | --- | --- | --- |
| 90 nM | 171 nM | 11 nM | CC(C)c1ccc(C2=CCC(C)(C)c3ccc(C#Cc4ccc(C(=O)O)cc4)cc32)cc1 |
| 85 nM | 82 nM | 52 nM | CC1(C)CC=C(c2ccc(F)cc2)c2cc(C#Cc3ccc(C(=O)O)cc3)ccc21 |
| 60 nM | 36 nM | 16 nM | COc1ccc(C2=CCC(C)(C)c3ccc(C#Cc4ccc(C(=O)O)cc4)cc32)cc1 |
| 58 nM | 27 nM | 18 nM | CC1(C)CC=C(c2ccc(Cl)cc2)c2cc(C#Cc3ccc(C(=O)O)cc3)ccc21 |
| 44 nM | 57 nM | 29 nM | CC1(C)CC=C(c2ccc(C(F)(F)F)cc2)c2cc(C#Cc3ccc(C(=O)O)cc3)ccc21 |
| 40 nM | 19 nM | 10 nM | CCc1ccc(C2=CCC(C)(C)c3ccc(C#Cc4ccc(C(=O)O)cc4)cc32)cc1 |
| 38 nM | 51 nM | 14 nM | CC1(C)CC=C(c2ccc(C#N)cc2)c2cc(C#Cc3ccc(C(=O)O)cc3)ccc21 |
| 16 nM | 7 nM | 7 nM | Cc1ccc(C2=CCC(C)(C)c3ccc(C#Cc4ccc(C(=O)O)cc4)cc32)cc1 |
